What was measured:
[1] = system: Ear Edema Caused by Tetradecanoylphorbolacetate; experiment: Inhibition of Ear Edema Caused by Tetradecanoylphorbolacetate (I), Table 1; format: in vivo, CF-1 Mice
Source text: (§1) Such inflammatory agents typically include tetradecanoylphorbolacetate, arachidonic acid, xylene, capsaicin, oxazolone, carrageenan and the like. The reverse passive Arthus test offers another measure of the compound's utility in preventing an inflammatory response (Chang et al, Eur. J. Pharm. 69:155-164 (1981)). Test compounds are typically administered intraperitoneally or topically. For intraperitoneal administration, the test compound can be given in dimethyl sulfoxide or in 0.5% methylcellulose 30 minutes prior to administration of the irritant. For topical administration, the test compound can be dissolved in, for example, acetone, ethanol or dimethyl sulfoxide and applied about 15 minutes prior to application of the irritant. Results can be expressed as the percent decrease in swelling in the compound-treated animals as compared to control animals that receive only the irritant.
Inhibition of Ear Edema Caused by Tetradecanoylphorbolacetate (I)
CF-1 Mice, 25-30 g body weight, six animals per group, were used. Test compounds (compounds of Formula I where X is oxygen, R3, R4, A and B are hydrogen and Q is as indicated in Table 1) were administered intraperitoneally (100 mg/kg) or topically as follows. For intraperitoneal administration, the test compound was dissolved in dimethyl sulfoxide or 0.5% methylcellulose and 100 μl was injected 30 minutes prior to irritant (100 mg/kg, i.p.). For topical administration, the test compound was dissolved in either acetone, ethanol or dimethyl sulfoxide and 5 μl (100 μg) applied to the upper surface (1 cm^2) of the ear and an additional 5 μl (100 μg) applied to the lower surface (1 cm^2) of the ear fifteen minutes prior to application of the irritant. A solution of the irritant, tetradecanoylphorbolacetate, 200 μg/ml, was added to the surface of the ear, 5 μl added to the upper surface and 5 μl to the lower surface. After three hours, the thickness of the ear was measured to 0.01 mm by a micrometer with loose drag positioned at the lateral-most edge of the mid-point of the pinna. Data were calculated as the inhibition by the test compound of increased ear thickness compared to control animals receiving only the irritant.

[2] = system: Ear Edema Caused by Arachidonic Acid; experiment: Inhibition of Ear Edema Caused by Arachidonic Acid (I), Table 2; format: in vivo, CF-1 Mice; conditions: i.p., 100 mg/kg; ear thickness at sixty minutes
Source text: as §1
Inhibition of Ear Edema Caused by Arachidonic Acid (I)
CF-1 Mice, 25-30 g body weight, six animals per group, were used. Test compounds (compounds of Formula I where X is oxygen, R3, R4, A and B are hydrogen and Q is as indicated in Table 2) were administered intraperitoneally (100 mg/kg) as follows. For intraperitoneal administration, test compound was dissolved in DMSO or 0.5% methylcellulose and 100 μl was injected 30 minutes prior to i.p. administration of 100 mg/kg of arachidonic acid. A solution of the irritant, arachidonic acid, 100 mg/ml in ethanol, was added to the surface of the ear, 5 μl added to the upper surface and 5 μl to the lower surface. After sixty minutes, the thickness of the ear was measured to 0.01 mm by a micrometer with loose drag positioned at the lateral-most edge of the mid-point of the pinna. Data were calculated as the percent inhibition by the test compound of increased ear thickness compared to control animals receiving only the irritant.

[3] = system: Ear Edema Caused by Xylene; experiment: Inhibition of Ear Edema Caused by Xylene (I), Table 3; format: in vivo, CF-1 Mice; conditions: 2 h
Source text: as §1
Inhibition of Ear Edema Caused by Xylene (I)
CF-1 Mice, 25-30 g body weight, six animals per group, were used. Test compounds (compounds of Formula I where X is oxygen, R3, R4, A and B are hydrogen and Q is as indicated in Table 3) were administered intraperitoneally (100 mg/kg) or topically as follows. For intraperitoneal administration, the test compound was dissolved in DMSO or 0.5% methylcellulose and 100 μl was injected 30 minutes prior to irritant. For topical administration, test compound was dissolved in either acetone, ethanol or dimethyl sulfoxide and 5 μl (10 μg) applied to the upper surface (1 cm^2) of the ear and an additional 5 μl (10 μg) applied to the lower surface (1 cm^2) of the ear fifteen minutes prior to application of the irritant. The irritant, xylene, was added to the surface of the ear, 20 μl added to the upper surface and 20 μl to the lower surface. After two hours, the thickness of the ear was measured to 0.01 mm by a micrometer with loose drag positioned at the lateral-most edge of the mid-point of the pinna. Data were calculated as the inhibition by the test compound of increased ear thickness compared to that of control animals receiving only the irritant.

[4] = system: Ear Edema Caused by Capsaicin; experiment: Inhibition of Ear Edema Caused by Capsaicin, Table 4; format: in vivo, CF-1 Mice
Source text: as §1
Inhibition of Ear Edema Caused by Capsaicin
CF-1 Mice, 25-30 g body weight, six animals per group, were used. […] After thirty minutes, the thickness of the ear was measured to 0.01 mm by a micrometer with loose drag positioned at the lateral-most edge of the mid-point of the pinna. Data were calculated as the inhibition by the test compound of increased ear thickness compared to control animals receiving only the irritant.

[5] = system: Ear Edema Caused by Oxazolone; experiment: Inhibition of Ear Edema Caused by Oxazolone (I), Table 5; format: in vivo, CF-1 Mice; conditions: i.p., 100 mg/kg, 30 min before irritant; sensitized mice; 24 h
Source text: as §1
Inhibition of Ear Edema Caused by Oxazolone (I)
CF-1 Mice, 25-30 g body weight, six animals per group, were used. The mice were sensitized to the irritant two weeks prior to the test by dribbling 100 μl of a 3% solution of oxazolone in acetone onto the abdominal skin of the animal. Test compounds (compounds of Formula I where X is oxygen, R3, R4, A and B are hydrogen and Q is as indicated in Table 5) were administered intraperitoneally as follows. The test compound was dissolved in DMSO or 0.5% methylcellulose and 100 μl (100 mg/kg) was injected 30 minutes prior to irritant. The irritant, 3% oxazolone in acetone, was added to the surface of the ear, 5 μl added to the upper surface and 5 μl to the lower surface. After twenty four hours, the thickness of the ear was measured to 0.01 mm by a micrometer with loose drag positioned at the lateral-most edge of the mid-point of the pinna. Data were calculated as the inhibition by the test compound of increased ear thickness compared to control animals receiving only the irritant.

[6] = system: Reverse Passive Artus Reaction; experiment: Reverse Passive Artus Reaction (I), Table 6; format: in vivo, Male CD rats; conditions: inhibition of blueing; i.p., 100 mg/kg, one hour before antigen
Source text: as §1
Reverse Passive Artus Reaction (I)
Male CD rats weighing between 200 and 250 g were used. Test compounds (compounds of Formula I where X is oxygen, R3, R4, A and B are hydrogen and Q is as indicated in Table 6) were dissolved in dimethyl sulfoxide and 200 μl of this solution (100 mg/kg) were injected intraperitoneally one hour before administration of the antigen. The animals were anesthetized inhalationally with isoflurane and then were injected through the penile vein with 1 ml of a solution of 2.5 mg of Evan's blue dye and 5.0 mg of human serum albumin in 1 ml of saline. This treatment was followed immediately by intracutaneous injections of 0.03 ml of anti-human albumin diluted to contain 3.65 mg of antibody at 3 sites along the midline back. Anesthesia was terminated and after three hours the animals were sacrificed. The skin was removed and the blue stained areas cut out. […] The tube contents were agitated and centrifuged, and the absorbance of the supernatant liquid was measured at 620 nm. The data were calculated as inhibition of blueing by test compound compared to control animals receiving only antigen and antibody.

[7] = system: Ear Edema Caused by Arachidonic Acid; experiment: Inhibition of Ear Edema Caused by Arachidonic Acid (I), Table 2; format: in vivo, CF-1 Mice; conditions: dose not given in Example 4, sixty minutes

Row | Molecule | % Inhibition Intraperitoneal ([1]; i.p., 100 mg/kg, 30 min before irritant, ear thickness at 3 h) [%] | % Inhibition, topical ([1]; topical, 100 μg upper + 100 μg lower ear surface, 15 min before irritant, 3 h) [%] | % Inhibition Intraperitoneal [2] [%] | % Inhibition Intraperitoneal ([3]; i.p., 100 mg/kg, 30 min before irritant) [%] | % Inhibition, topical ([3]; topical, 10 μg upper + 10 μg lower ear surface, 15 min before irritant) [%] | % Inhibition Intraperitoneal ([4]; i.p., 100 mg/kg, 30 min before irritant, ear thickness at thirty minutes) [%] | % Inhibition Intraperitoneal [5] [%] | % Inhibition Intraperitoneal [6] [%] | % Inhibition, topical [7] [%] | % Inhibition Intraperitoneal ([3]; Reference Standard, 100 μg/ear) [%] | % Inhibition Intraperitoneal ([4]; Reference Standard, 100 μg/ear, thirty minutes) [%]
1 | CC(C)C[C@H](NC(=O)OCC1c2ccccc2-c2ccccc21)C(=O)O [L-Leucine, N-[(9H-Fluoren-9-ylmethoxy)carbonyl]-L-leucine] | 54 | 41 | 62 | 47 | 66 | 74 | 58 | 48 | 41 | – | –
2 | D-Pro^2 -D-Trp^7.9 -Substance P [reference compound] | – | – | – | – | – | – | – | – | – | 44 | 34

From patent publication US5079260A, “Method for treating inflammation and compounds and compositions suitable for use therein” (Nova Pharmaceutical Corporation, priority 1990, dated 1992)
